# Where “and” joins values, the source holds several entries; their conditions need not be identical. Equal values may be shown once.
# What was measured:
# S. furcifera adults = test: Y-tube olfactometer behavioral trials; assay type: in vivo, Sogatella furcifera; details: odorant 50 µL/L vs hexane; adults
# Method in brief: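 Single S. furcifera adults (2 days post-emergence, starved 0.5 h) chose between odorant (100 µL of 50 µL/L on filter paper) and hexane control in a glass Y-tube, charcoal-filtered humidified air 300 mL/min per arm, 25 ± 1 °C, 50% RH. Choice scored if insect passed half an arm and stayed >1 min within 10 min; 45 insects per compound, chi-squared test.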
# SfurOBP1 = SfurOBP1 (Sogatella furcifera, UniProt V5T8N5); test: biochemical; assay type: binding; details: for Fluorescence competitive binding assay, fluorescence intensity: OBP1, three replicate columns
# Method in brief: (§1)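 First, 2.0 µM protein in 50 mM Tris-HCl (pH 7.4) was titrated with 1-NPN to obtain K1-NPN. Then odorants (2–20 µM final) competed against 2.0 µM 1-NPN, with fluorescence (ex 337 nm) recorded after 2 min. Ki was computed from IC50 via Ki = IC50/(1 + [1-NPN]/K1-NPN).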
# SfurOBP11 = SfurOBP11 (Sogatella furcifera, UniProt V5T6E3); test: biochemical; assay type: binding
# Method in brief: as §1
# SfurOBP2 = SfurOBP2 (Sogatella furcifera, UniProt V5T759); test: biochemical; assay type: binding
# Method in brief: as §1
# SfurOBP3 = SfurOBP3 (Sogatella furcifera, UniProt V5T818); test: biochemical; assay type: binding; details: for Fluorescence competitive binding assay, fluorescence intensity: OBP3, three replicate columns
# Method in brief: as §1
# Chain of SfurOBP3 (V5T818 entry or part of it): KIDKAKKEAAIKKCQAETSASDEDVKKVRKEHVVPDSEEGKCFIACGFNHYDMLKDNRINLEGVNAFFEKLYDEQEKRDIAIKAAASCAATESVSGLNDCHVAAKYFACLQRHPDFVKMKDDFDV
# Chain of SfurOBP2 (V5T759 entry or part of it): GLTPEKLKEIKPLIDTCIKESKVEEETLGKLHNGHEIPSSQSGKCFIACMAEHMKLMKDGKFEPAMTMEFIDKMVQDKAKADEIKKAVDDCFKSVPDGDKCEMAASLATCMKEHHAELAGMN
# Chain of SfurOBP11 (V5T6E3 entry or part of it): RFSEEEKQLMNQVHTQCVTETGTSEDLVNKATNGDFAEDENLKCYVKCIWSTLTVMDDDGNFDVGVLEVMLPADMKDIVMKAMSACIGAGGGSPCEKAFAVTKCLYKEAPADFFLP
# Chain of SfurOBP1 (V5T8N5 entry or part of it): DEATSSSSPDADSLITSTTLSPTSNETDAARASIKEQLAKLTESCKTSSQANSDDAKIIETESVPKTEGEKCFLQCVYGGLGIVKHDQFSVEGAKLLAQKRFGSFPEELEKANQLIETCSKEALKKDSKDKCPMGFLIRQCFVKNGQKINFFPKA
smiles,measurement,setting,value
CC1=CC[C@@H](C(C)(C)O)CC1 [α-terpineol],number of insects choosing hexane arm,S. furcifera adults,14
same,number of insects choosing volatilies arm,S. furcifera adults,11
same,number of insects failed (no choice),S. furcifera adults,15
same,IC50,SfurOBP1,> 20 µM
same,"Fluorescence competitive binding assay, fluorescence intensity",SfurOBP1; ligand concentration 2 (μM),6377 and 6063 and 6691
same,"Fluorescence competitive binding assay, fluorescence intensity",SfurOBP1; ligand concentration 4 (μM),7679 and 7170 and 7304
same,"Fluorescence competitive binding assay, fluorescence intensity",SfurOBP1; ligand concentration 6 (μM),7149 and 7127 and 7171
same,"Fluorescence competitive binding assay, fluorescence intensity",SfurOBP1; ligand concentration 8 (μM),6956 and 7151 and 7930
same,"Fluorescence competitive binding assay, fluorescence intensity",SfurOBP1; ligand concentration 10 (μM),8380 and 7109 and 7555
same,"Fluorescence competitive binding assay, fluorescence intensity",SfurOBP1; ligand concentration 12 (μM),7012 and 7971 and 7255
same,"Fluorescence competitive binding assay, fluorescence intensity",SfurOBP1; ligand concentration 14 (μM),6581 and 7020 and 7628
same,"Fluorescence competitive binding assay, fluorescence intensity",SfurOBP1; ligand concentration 16 (μM),6623 and 7749 and 6480
same,"Fluorescence competitive binding assay, fluorescence intensity",SfurOBP1; ligand concentration 18 (μM),7107 and 7324 and 6847
same,"Fluorescence competitive binding assay, fluorescence intensity",SfurOBP1; ligand concentration 20 (μM),6572 and 7380 and 8412
same,IC50,SfurOBP11,> 20 µM
same,"Fluorescence intensity, fluorescence competitive binding assay, OBP11","SfurOBP11; ligand concentration 2, replicate 1",29252
same,"Fluorescence intensity, fluorescence competitive binding assay, OBP11","SfurOBP11; ligand concentration 2, replicate 2",30685
same,"Fluorescence intensity, fluorescence competitive binding assay, OBP11","SfurOBP11; ligand concentration 2, replicate 3",32118
same,"Fluorescence intensity, fluorescence competitive binding assay, OBP11","SfurOBP11; ligand concentration 4, replicate 1",28869
same,"Fluorescence intensity, fluorescence competitive binding assay, OBP11","SfurOBP11; ligand concentration 4, replicate 2",31369
same,"Fluorescence intensity, fluorescence competitive binding assay, OBP11","SfurOBP11; ligand concentration 4, replicate 3",30942
same,"Fluorescence intensity, fluorescence competitive binding assay, OBP11","SfurOBP11; ligand concentration 6, replicate 1",28105
same,"Fluorescence intensity, fluorescence competitive binding assay, OBP11","SfurOBP11; ligand concentration 6, replicate 2",27021
same,"Fluorescence intensity, fluorescence competitive binding assay, OBP11","SfurOBP11; ligand concentration 6, replicate 3",30576
same,"Fluorescence intensity, fluorescence competitive binding assay, OBP11","SfurOBP11; ligand concentration 8, replicate 1",25898
same,"Fluorescence intensity, fluorescence competitive binding assay, OBP11","SfurOBP11; ligand concentration 8, replicate 2",26158
same,"Fluorescence intensity, fluorescence competitive binding assay, OBP11","SfurOBP11; ligand concentration 8, replicate 3",28412
same,"Fluorescence intensity, fluorescence competitive binding assay, OBP11","SfurOBP11; ligand concentration 10, replicate 1",27115
same,"Fluorescence intensity, fluorescence competitive binding assay, OBP11","SfurOBP11; ligand concentration 10, replicate 2",24221
same,"Fluorescence intensity, fluorescence competitive binding assay, OBP11","SfurOBP11; ligand concentration 10, replicate 3",26039
same,"Fluorescence intensity, fluorescence competitive binding assay, OBP11","SfurOBP11; ligand concentration 12, replicate 1",23153
same,"Fluorescence intensity, fluorescence competitive binding assay, OBP11","SfurOBP11; ligand concentration 12, replicate 2",22497
same,"Fluorescence intensity, fluorescence competitive binding assay, OBP11","SfurOBP11; ligand concentration 12, replicate 3",22406
same,"Fluorescence intensity, fluorescence competitive binding assay, OBP11","SfurOBP11; ligand concentration 14, replicate 1",22371
same,"Fluorescence intensity, fluorescence competitive binding assay, OBP11","SfurOBP11; ligand concentration 14, replicate 2",22254
same,"Fluorescence intensity, fluorescence competitive binding assay, OBP11","SfurOBP11; ligand concentration 14, replicate 3",22487
same,"Fluorescence intensity, fluorescence competitive binding assay, OBP11","SfurOBP11; ligand concentration 16, replicate 1",19119
same,"Fluorescence intensity, fluorescence competitive binding assay, OBP11","SfurOBP11; ligand concentration 16, replicate 2",17607
same,"Fluorescence intensity, fluorescence competitive binding assay, OBP11","SfurOBP11; ligand concentration 16, replicate 3",18419
same,"Fluorescence intensity, fluorescence competitive binding assay, OBP11","SfurOBP11; ligand concentration 18, replicate 1",25701
same,"Fluorescence intensity, fluorescence competitive binding assay, OBP11","SfurOBP11; ligand concentration 18, replicate 2",25030
same,"Fluorescence intensity, fluorescence competitive binding assay, OBP11","SfurOBP11; ligand concentration 18, replicate 3",24854
same,"Fluorescence intensity, fluorescence competitive binding assay, OBP11","SfurOBP11; ligand concentration 20, replicate 1",25268
same,"Fluorescence intensity, fluorescence competitive binding assay, OBP11","SfurOBP11; ligand concentration 20, replicate 2",25350
same,"Fluorescence intensity, fluorescence competitive binding assay, OBP11","SfurOBP11; ligand concentration 20, replicate 3",25312
same,IC50,SfurOBP2,> 20 µM
same,"Fluorescence competitive binding assay, OBP2 (raw fluorescence reading)","SfurOBP2; ligand concentration 2 (unit not given), replicate column 1 of 3",18212
same,"Fluorescence competitive binding assay, OBP2 (raw fluorescence reading)","SfurOBP2; ligand concentration 2 (unit not given), replicate column 2 of 3",17771
same,"Fluorescence competitive binding assay, OBP2 (raw fluorescence reading)","SfurOBP2; ligand concentration 2 (unit not given), replicate column 3 of 3",19569
same,"Fluorescence competitive binding assay, OBP2 (raw fluorescence reading)","SfurOBP2; ligand concentration 4 (unit not given), replicate column 1 of 3",20390
same,"Fluorescence competitive binding assay, OBP2 (raw fluorescence reading)","SfurOBP2; ligand concentration 4 (unit not given), replicate column 2 of 3",18924
same,"Fluorescence competitive binding assay, OBP2 (raw fluorescence reading)","SfurOBP2; ligand concentration 4 (unit not given), replicate column 3 of 3",19735
same,"Fluorescence competitive binding assay, OBP2 (raw fluorescence reading)","SfurOBP2; ligand concentration 6 (unit not given), replicate column 1 of 3",19485
same,"Fluorescence competitive binding assay, OBP2 (raw fluorescence reading)","SfurOBP2; ligand concentration 6 (unit not given), replicate column 2 of 3",20387
same,"Fluorescence competitive binding assay, OBP2 (raw fluorescence reading)","SfurOBP2; ligand concentration 6 (unit not given), replicate column 3 of 3",20572
same,"Fluorescence competitive binding assay, OBP2 (raw fluorescence reading)","SfurOBP2; ligand concentration 8 (unit not given), replicate column 1 of 3",16903
same,"Fluorescence competitive binding assay, OBP2 (raw fluorescence reading)","SfurOBP2; ligand concentration 8 (unit not given), replicate column 2 of 3",17555
same,"Fluorescence competitive binding assay, OBP2 (raw fluorescence reading)","SfurOBP2; ligand concentration 8 (unit not given), replicate column 3 of 3",17959
same,"Fluorescence competitive binding assay, OBP2 (raw fluorescence reading)","SfurOBP2; ligand concentration 10 (unit not given), replicate column 1 of 3",16415
same,"Fluorescence competitive binding assay, OBP2 (raw fluorescence reading)","SfurOBP2; ligand concentration 10 (unit not given), replicate column 2 of 3",15491
same,"Fluorescence competitive binding assay, OBP2 (raw fluorescence reading)","SfurOBP2; ligand concentration 10 (unit not given), replicate column 3 of 3",17367
same,"Fluorescence competitive binding assay, OBP2 (raw fluorescence reading)","SfurOBP2; ligand concentration 12 (unit not given), replicate column 1 of 3",14309
same,"Fluorescence competitive binding assay, OBP2 (raw fluorescence reading)","SfurOBP2; ligand concentration 12 (unit not given), replicate column 2 of 3",15826
same,"Fluorescence competitive binding assay, OBP2 (raw fluorescence reading)","SfurOBP2; ligand concentration 12 (unit not given), replicate column 3 of 3",15705
same,"Fluorescence competitive binding assay, OBP2 (raw fluorescence reading)","SfurOBP2; ligand concentration 14 (unit not given), replicate column 1 of 3",15282
same,"Fluorescence competitive binding assay, OBP2 (raw fluorescence reading)","SfurOBP2; ligand concentration 14 (unit not given), replicate column 2 of 3",15181
same,"Fluorescence competitive binding assay, OBP2 (raw fluorescence reading)","SfurOBP2; ligand concentration 14 (unit not given), replicate column 3 of 3",14363
same,"Fluorescence competitive binding assay, OBP2 (raw fluorescence reading)","SfurOBP2; ligand concentration 16 (unit not given), replicate column 1 of 3",13073
same,"Fluorescence competitive binding assay, OBP2 (raw fluorescence reading)","SfurOBP2; ligand concentration 16 (unit not given), replicate column 2 of 3",13018
same,"Fluorescence competitive binding assay, OBP2 (raw fluorescence reading)","SfurOBP2; ligand concentration 16 (unit not given), replicate column 3 of 3",13539
same,"Fluorescence competitive binding assay, OBP2 (raw fluorescence reading)","SfurOBP2; ligand concentration 18 (unit not given), replicate column 1 of 3",15519
same,"Fluorescence competitive binding assay, OBP2 (raw fluorescence reading)","SfurOBP2; ligand concentration 18 (unit not given), replicate column 2 of 3",15960
same,"Fluorescence competitive binding assay, OBP2 (raw fluorescence reading)","SfurOBP2; ligand concentration 18 (unit not given), replicate column 3 of 3",15297
same,"Fluorescence competitive binding assay, OBP2 (raw fluorescence reading)","SfurOBP2; ligand concentration 20 (unit not given), replicate column 1 of 3",14913
same,"Fluorescence competitive binding assay, OBP2 (raw fluorescence reading)","SfurOBP2; ligand concentration 20 (unit not given), replicate column 2 of 3",14580
same,"Fluorescence competitive binding assay, OBP2 (raw fluorescence reading)","SfurOBP2; ligand concentration 20 (unit not given), replicate column 3 of 3",12894
same,IC50,SfurOBP3,13.6 µM
same,"Fluorescence competitive binding assay, fluorescence intensity",SfurOBP3; ligand concentration 2,41927 and 42538 and 43146
same,"Fluorescence competitive binding assay, fluorescence intensity",SfurOBP3; ligand concentration 4,40833 and 40011 and 41655
same,"Fluorescence competitive binding assay, fluorescence intensity",SfurOBP3; ligand concentration 6,42160 and 41392 and 42949
same,"Fluorescence competitive binding assay, fluorescence intensity",SfurOBP3; ligand concentration 8,37611 and 37369 and 39854
same,"Fluorescence competitive binding assay, fluorescence intensity",SfurOBP3; ligand concentration 10,32220 and 32701 and 33181
same,"Fluorescence competitive binding assay, fluorescence intensity",SfurOBP3; ligand concentration 12,30392 and 29567 and 30934
same,"Fluorescence competitive binding assay, fluorescence intensity",SfurOBP3; ligand concentration 14,29784 and 30310 and 29247
same,"Fluorescence competitive binding assay, fluorescence intensity",SfurOBP3; ligand concentration 16,24410 and 25726 and 27469
same,"Fluorescence competitive binding assay, fluorescence intensity",SfurOBP3; ligand concentration 18,26293 and 25033 and 26983
same,"Fluorescence competitive binding assay, fluorescence intensity",SfurOBP3; ligand concentration 20,28495 and 26490 and 25496
same,binding affinity to SfurOBP3 (in words),SfurOBP3; SfurOBP3,high binding affinities

# From publication PMC6409085, “Three odorant-binding proteins are involved in the behavioral response of Sogatella furcifera to rice plant volatiles” (PeerJ, 2019)
